{
  "source": "ChEMBL document CHEMBL1201862",
  "about": "“PubChem BioAssay data set” (2004)",
  "experiment_in_all_cases": "growth of human tumour cells (NCI), 48 h",
  "key": {"786-0": {"tested_on": "786-0"}, "A498": {"tested_on": "A498"}, "A549": {"tested_on": "A549"}, "ACHN": {"tested_on": "ACHN"}, "CAKI-1": {"tested_on": "CAKI-1"}, "CCRF-CEM": {"tested_on": "CCRF-CEM"}, "COLO 205": {"tested_on": "COLO 205"}, "DLD-1": {"tested_on": "DLD-1"}, "DMS-114": {"tested_on": "DMS-114"}, "DMS-273": {"tested_on": "DMS-273"}, "EKVX": {"tested_on": "EKVX"}, "HCC 2998": {"tested_on": "HCC 2998"}, "HCT-116": {"tested_on": "HCT-116"}, "HCT-15": {"tested_on": "HCT-15"}, "HL-60": {"tested_on": "HL-60"}, "HOP-18": {"tested_on": "HOP-18"}, "HOP-62": {"tested_on": "HOP-62"}, "HOP-92": {"tested_on": "HOP-92"}, "HT-29": {"tested_on": "HT-29"}, "IGROV-1": {"tested_on": "IGROV-1"}, "K562": {"tested_on": "K562"}, "KM-20L2": {"tested_on": "KM-20L2"}, "KM12": {"tested_on": "KM12"}, "LOX IMVI": {"tested_on": "LOX IMVI"}, "LXFL 529": {"tested_on": "LXFL 529"}, "M14": {"tested_on": "M14"}, "M19-MEL": {"tested_on": "M19-MEL"}, "MOLT-4": {"tested_on": "MOLT-4"}, "Malme-3M": {"tested_on": "Malme-3M"}, "NCI-H226": {"tested_on": "NCI-H226"}, "NCI-H23": {"tested_on": "NCI-H23"}, "NCI-H460": {"tested_on": "NCI-H460"}, "NCI-H522": {"tested_on": "NCI-H522"}, "OVCAR-3": {"tested_on": "OVCAR-3"}, "OVCAR-4": {"tested_on": "OVCAR-4"}, "OVCAR-5": {"tested_on": "OVCAR-5"}, "OVCAR-8": {"tested_on": "OVCAR-8"}, "RPMI-8226": {"tested_on": "RPMI-8226"}, "SF-268": {"tested_on": "SF-268"}, "SF-295": {"tested_on": "SF-295"}, "SF-539": {"tested_on": "SF-539"}, "SK-MEL-28": {"tested_on": "SK-MEL-28"}, "SK-MEL-2": {"tested_on": "SK-MEL-2"}, "SK-MEL-5": {"tested_on": "SK-MEL-5"}, "SK-OV-3": {"tested_on": "SK-OV-3"}, "SN12C": {"tested_on": "SN12C"}, "SNB-19": {"tested_on": "SNB-19"}, "SNB-75": {"tested_on": "SNB-75"}, "SW-620": {"tested_on": "SW-620"}, "TK-10": {"tested_on": "TK-10"}, "U-251": {"tested_on": "U-251"}, "UACC-62": {"tested_on": "UACC-62"}},
  "note": "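Values below derive from 48-hour exposures of cells grown in 96-well plates, with endpoints linearly interpolated between the two concentrations bracketing the appropriate inhibition level. GI50 marks 50% less growth.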 Calls of active or inactive are those of the source. Rule as the data show it: active = GI50 up to about 1.1 µM and inactive = higher.",
  "data": [
    {"smiles": "CCOC(=O)C(=Cc1ccc(C(=O)OC)cc1)C(=O)OCC", "values": [
      {"measurement": "GI50", "setting": "786-0", "value": "1.62 µM (inactive)"},
      {"measurement": "GI50", "setting": "A498", "value": "13.2 µM (inactive)"},
      {"measurement": "GI50", "setting": "A549", "value": "3.37 µM (inactive)"},
      {"measurement": "GI50", "setting": "ACHN", "value": "1.69 µM (inactive)"},
      {"measurement": "GI50", "setting": "CAKI-1", "value": "1.67 µM (inactive)"},
      {"measurement": "GI50", "setting": "CCRF-CEM", "value": "1.58 µM (inactive)"},
      {"measurement": "GI50", "setting": "COLO 205", "value": "1.85 µM (inactive)"},
      {"measurement": "GI50", "setting": "DLD-1", "value": "2.12 µM (inactive)"},
      {"measurement": "GI50", "setting": "DMS-114", "value": "1.66 µM (inactive)"},
      {"measurement": "GI50", "setting": "DMS-273", "value": "1.71 µM (inactive)"},
      {"measurement": "GI50", "setting": "EKVX", "value": "11.1 µM (inactive)"},
      {"measurement": "GI50", "setting": "HCC 2998", "value": "4.06 µM (inactive)"},
      {"measurement": "GI50", "setting": "HCT-116", "value": "3.33 µM (inactive)"},
      {"measurement": "GI50", "setting": "HCT-15", "value": 2.37, "unit": "µM"},
      {"measurement": "GI50", "setting": "HL-60", "value": "1.54 µM (inactive)"},
      {"measurement": "GI50", "setting": "HOP-18", "value": "3.49 µM (inactive)"},
      {"measurement": "GI50", "setting": "HOP-62", "value": "2.2 µM (inactive)"},
      {"measurement": "GI50", "setting": "HOP-92", "value": "1.67 µM (inactive)"},
      {"measurement": "GI50", "setting": "HT-29", "value": "3.21 µM (inactive)"},
      {"measurement": "GI50", "setting": "IGROV-1", "value": "3.01 µM (inactive)"},
      {"measurement": "GI50", "setting": "K562", "value": "2.32 µM (inactive)"},
      {"measurement": "GI50", "setting": "KM-20L2", "value": "0.845 µM (active)"},
      {"measurement": "GI50", "setting": "KM12", "value": "2.92 µM (inactive)"},
      {"measurement": "GI50", "setting": "LOX IMVI", "value": "1.73 µM (inactive)"},
      {"measurement": "GI50", "setting": "LXFL 529", "value": "1.75 µM (inactive)"},
      {"measurement": "GI50", "setting": "M14", "value": "1.69 µM (inactive)"},
      {"measurement": "GI50", "setting": "M19-MEL", "value": "2.75 µM (inactive)"},
      {"measurement": "GI50", "setting": "MOLT-4", "value": "2.61 µM (inactive)"},
      {"measurement": "GI50", "setting": "Malme-3M", "value": "1.8 µM (inactive)"},
      {"measurement": "GI50", "setting": "NCI-H226", "value": "2.08 µM (inactive)"},
      {"measurement": "GI50", "setting": "NCI-H23", "value": "1.76 µM (inactive)"},
      {"measurement": "GI50", "setting": "NCI-H460", "value": "21.1 µM (inactive)"},
      {"measurement": "GI50", "setting": "NCI-H522", "value": "1.33 µM (inactive)"},
      {"measurement": "GI50", "setting": "OVCAR-3", "value": "3.41 µM (inactive)"},
      {"measurement": "GI50", "setting": "OVCAR-4", "value": "3.78 µM (inactive)"},
      {"measurement": "GI50", "setting": "OVCAR-5", "value": "7.16 µM (inactive)"},
      {"measurement": "GI50", "setting": "OVCAR-8", "value": "2.98 µM (inactive)"},
      {"measurement": "GI50", "setting": "RPMI-8226", "value": "1.37 µM (inactive)"},
      {"measurement": "GI50", "setting": "SF-268", "value": "2.4 µM (inactive)"},
      {"measurement": "GI50", "setting": "SF-295", "value": "5.26 µM (inactive)"},
      {"measurement": "GI50", "setting": "SF-539", "value": "1.67 µM (inactive)"},
      {"measurement": "GI50", "setting": "SK-MEL-28", "value": "1.71 µM (inactive)"},
      {"measurement": "GI50", "setting": "SK-MEL-2", "value": "1.75 µM (inactive)"},
      {"measurement": "GI50", "setting": "SK-MEL-5", "value": "2.05 µM (inactive)"},
      {"measurement": "GI50", "setting": "SK-OV-3", "value": "13.6 µM (inactive)"},
      {"measurement": "GI50", "setting": "SN12C", "value": "2.25 µM (inactive)"},
      {"measurement": "GI50", "setting": "SNB-19", "value": "2.39 µM (inactive)"},
      {"measurement": "GI50", "setting": "SNB-75", "value": "2.07 µM (inactive)"},
      {"measurement": "GI50", "setting": "SW-620", "value": "2.24 µM (inactive)"},
      {"measurement": "GI50", "setting": "TK-10", "value": "2.88 µM (inactive)"},
      {"measurement": "GI50", "setting": "U-251", "value": "1.66 µM (inactive)"},
      {"measurement": "GI50", "setting": "UACC-62", "value": "2.04 µM (inactive)"}
    ]}
  ]
}
